Assay results published in US11939377B2, “Affinity matured CD22-specific monoclonal antibody and uses thereof” (The U.S.A., as represented by the Secretary, Department of …, priority 2018, dated 2024).

Legend:
[1] = system: CD22 expression on ALL and DLBCL cell lines (Nalm6, Kopn8, SEM, Pfeiffer, Toledo, PDX); conditions: Biberacher et al. 2012; cited from earlier work
Nalm6 leukemia cells = assay: CD22 expression on Nalm6 in NSG mice after a single dose of Bryostatin 1; format: in vivo; conditions: single dose I.P.
Experimental: FIGS. 3A-3D: (FIG. 3A) Four cell lines (Nalm6, Kopn8, Pfieffer and Toldeo) were co-incubated with 1 ng/ml Bryostatin 1 for 24 hours and analyzed using flow cytometry one day after Bryostatin 1 exposure. Site density was analyzed using standardized Quantibrite-PE beads. (FIG. 3B) Cell lines were co-incubated with 1 ng/ml Bryostatin 1 for 24 hours, washed, and analyzed using flow cytometry at 1 and 7 days after Bryostatin 1 exposure. Fold change was calculated based on site density: (Cell line Bryostatin 1—Cell line DMSO)/Cell line DMSO. (FIG. 3C) NSG mice were injected with 1×10^6 GPF-positive Nalm6 leukemia cells on Day 0. Bryostatin 1 was administered at 0.8 μg/kg on Day 3. Mice were sacrificed 7 and 12 days after Bryostatin 1 injection and CD22 was evaluated by flow cytometry. (FIG. 3D) CD22-low relapse PDX cell line was cultured in vitro with 1 nmol/L Bryostatin 1 for 24 hours and measured for CD22 expression using CD22 antibody. […]
FACS analysis of cell surface CAR and protein expression was performed using an LSR II Fortessa flow cytometer (BD Biosciences). CD22-CAR was detected by incubation with 22-Fc (R&D Systems), followed by incubation with human IgG-specific PE-F(ab)2 (Thermo Fisher Scientific). […] CD22 site density was determined using QuantiBrite-PE beads (BD Biosciences) using methods previously described (Jasper et al., Cytometry B Clin Cytom 80(2):83-90, 2011). […]

[2] = system: CD22^neg, CD22^lo or Nalm6 cells; assay: In vitro leukemia clearance assay (IncuCyte, loss of GFP-positive cells); format: cell-based, human; conditions: effector-to-target 1:1
Experimental: Cell death was monitored by loss of GFP-positive cells using Incucyte analysis. (FIG. 2B) NSG mice were injected with 1×10^6 GPF-positive CD22neg, CD22lo, or Nalm6 tumor cells on Day 0. […] Mice were imaged using IVIS technology after luciferin-D IP injection. […] Cells were stained for flow cytometry and analyzed on a Fortessa flow machine. (FIG. 2E) Site density cell lines were co-incubated with CD22 CART for 24 hours, and PD1 expression was stained for flow cytometry and analyzed on Fortessa flow machine. MFI=mean fluorescence intensity. […] (FIG. 2G) CD22 site density was evaluated using flow cytometry and Quantibrite analysis for CRISPR-edited Nalm6 cell lines.
FIGS. 5A-5D: (FIGS. 5A-5B) CD22 CART cells were co-incubated with 1 ng/ml of Bryostatin 1 for 24 hours and washed. […] IFN-γ (FIG. 5A) and granzyme B (FIG. 5B) were measured by ELISA from cell culture supernatants. Statistical analysis was performed using an unpaired t-test (**** p<0.0001, *** p<0.0002, ** p<0.0021, * p<0.0332). […] Cell death was monitored by loss of GFP-positive cells using Incucyte analysis. (FIG. 5D) NSG mice were injected with Nalm6 on Day 0, CD22 CART cells on Day 3, and then were given either DMSO control or Bryostatin 1 at 0.8 μg/kg once weekly for 2 weeks. Leukemia progression was monitored using IVIS technology and luciferin-D IP injections. […]

CCC/C=C/C=C/C(=O)O[C@H]1/C(=C/C(=O)OC)C[C@H]2C[C@H]([C@@H](C)O)OC(=O)C[C@H](O)C[C@@H]3C[C@H](OC(C)=O)C(C)(C)[C@](O)(C[C@@H]4C/C(=C/C(=O)OC)C[C@H](/C=C/C(C)(C)[C@]1(O)O2)O4)O3 [Bryostatin 1]
CD22 expression on chronic lymphocytic leukemia (CLL) [1]: increase CD22 expression
CD22 MFI on Nalm6 in vivo (Nalm6 leukemia cells; 1 week): increased
CD22 expression on Nalm6 in vivo (Nalm6 leukemia cells; 12 days post-drug administration): return to baseline expression
kinetics of leukemic clearance in vitro by drug-exposed CAR T cells [2]: no change
